According to US12129312B2, “Peptide compound, application thereof and composition containing same” (priority 2017, dated 2024):
Square brackets hold non-standard residues; d marks the D form. Peptide text beside a SMILES is read from it. * marks the point of attachment. Hydrocinnamoyl = O=C(CCc1ccccc1)*; Tic = O=C(O)[C@@H]1Cc2ccccc2CN1; NMeL = CN[C@@H](CC(C)C)C(=O)O

Assay: Plasma stability, rat plasma
Format: in vitro ADME
Conditions: 37° C., time points 0 minute, 1, 2 and 4 hours, LC-MS/MS, read-out: Rat plasma (T1/2 (h)) (converted)
Experimental: 1. Preparation of 50 mM Phosphate Buffer (50 mM Sodium Phosphate and 70 mM NaCl):
5.750 g of Na2HPO4, 1.141 g of NaH2PO4 and 4.095 g of NaCl (Shanghai Titan) were weighed and dissolved in 1000 mL of ultrapure water and the pH was adjusted to 7.4. The prepared phosphate buffer was stored in the refrigerator at 4° C., valid for one week.
2. Preparation of Compound Stock Solution:
1) 5 mg/mL test compound: 5 mg of compound was weighed and dissolved in 1 mL of DMSO.
2) 20 mM control: 2.728 mg of nococaine was dissolved in 0.5 mL of DMSO. 3.878 mg of fenfluramide was dissolved in 0.5 mL of DMSO (Amresco).
3. Preparation of Experimental Plasma:
The frozen plasma (human: Shanghai ChemPartner, Rat, Mouse: Shanghai Xipuer-Beikai, Dog, Monkey: Suzhou Xishan Zhongke) was taken out from the −80° C. refrigerator, immediately placed in a 37° C. water bath, and thawn with gentle shaking. The thawed plasma was poured into a centrifuge tube, and centrifuged at 3000 rpm for 8 minutes. The supernatant was collected for the experiment. The pH of the plasma was measured with a pH meter (METTLER TOLEDO), and only the plasma with a pH between 7.4 and 8 was used for the experiment. The plasma was placed on an ice bath for later use.
4. Preparation of the Dosing Solution: […]

Row | half-life at 500 ng/mL | Compound
1 | 11.7 h | CC(C)C[C@H](NC(=O)[C@H](Cc1ccccc1)NC(=O)[C@H](N)Cc1ccc(O)cc1)C(=O)N1CCC[C@H]1C(=O)N[C@H](CO)C(=O)N[C@@H](CCC(N)=O)C(=O)N[C@@H](Cc1ccccc1)C(=O)N[C@H](C)C(=O)N1Cc2ccccc2C[C@H]1C(=O)N[C@@H](CO)C(=O)O [YW-3, (D-Tyr)-Phe-Leu-Pro-(D-Ser)-Gln-Phe-(D-Ala)-Tic-Ser, reference compound] (H-[dY]FLP[dS]QF[dA][Tic]S-OH)
2 | > 71 h | CC(C)C[C@@H](C(=O)N1CCC[C@H]1C(=O)N[C@H](CO)C(=O)N[C@@H](CCC(N)=O)C(=O)N[C@@H](Cc1ccccc1)C(=O)N[C@H](C)C(=O)N1Cc2ccccc2C[C@H]1C(=O)N[C@@H](CO)C(=O)O)N(C)C(=O)[C@H](Cc1ccccc1)NC(=O)[C@@H](Cc1ccc(O)cc1)NC(=O)CCc1ccccc1 [YW-111, 3-phenylpropanoyl-(D-Tyr)-Phe-(NMe-Leu)-Pro-(D-Ser)-Gln-Phe-(D-Ala)-Tic-Ser-OH] (Hydrocinnamoyl-[dY]F[NMeL]P[dS]QF[dA][Tic]S-OH)
